From PubChem BioAssay (NCI)
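Method: 48-hour compound exposure of cells in 96-well plates, five concentrations, linear interpolation of endpoints. GI50 is the concentration that inhibits growth by half. At the TGI there is no net growth.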

Experiments:
Experiment in all cases: growth of human tumour cells (NCI), 48 h; in the data active = GI50 below about 0.43 µM; inactive = the rest
CAKI-1 renal = test system: CAKI-1 renal
OVCAR-8 ovarian = test system: OVCAR-8 ovarian
UACC-62 melanoma = test system: UACC-62 melanoma
SW-620 colon = test system: SW-620 colon
SK-OV-3 ovarian = test system: SK-OV-3 ovarian
SF-295 CNS = test system: SF-295 CNS
SK-MEL-2 melanoma = test system: SK-MEL-2 melanoma
HL-60(TB) leukemia = test system: HL-60(TB) leukemia
NCI-H226 lung = test system: NCI-H226 lung
MDA-MB-231 breast = test system: MDA-MB-231 breast
IGROV1 ovarian = test system: IGROV1 ovarian
HS 578T breast = test system: HS 578T breast
SN12C renal = test system: SN12C renal
M14 melanoma = test system: M14 melanoma
HCT-15 colon = test system: HCT-15 colon
SR leukemia = test system: SR leukemia
786-0 renal = test system: 786-0 renal
SK-MEL-5 melanoma = test system: SK-MEL-5 melanoma
NCI/ADR-RES ovarian = test system: NCI/ADR-RES ovarian
KM12 colon = test system: KM12 colon
MCF7 breast = test system: MCF7 breast
U251 CNS = test system: U251 CNS
DU-145 prostate = test system: DU-145 prostate
UACC-257 melanoma = test system: UACC-257 melanoma
CCRF-CEM leukemia = test system: CCRF-CEM leukemia
MDA-MB-435 = test system: MDA-MB-435
SNB-75 CNS = test system: SNB-75 CNS
HOP-62 NSCLC = test system: HOP-62 NSCLC
HCT-116 colon = test system: HCT-116 colon
OVCAR-5 ovarian = test system: OVCAR-5 ovarian
OVCAR-4 ovarian = test system: OVCAR-4 ovarian
MALME-3M melanoma = test system: MALME-3M melanoma
SF-539 CNS = test system: SF-539 CNS
NCI-H23 lung = test system: NCI-H23 lung
OVCAR-3 ovarian = test system: OVCAR-3 ovarian
HT29 colon = test system: HT29 colon
HCC-2998 colon = test system: HCC-2998 colon
NCI-H460 lung = test system: NCI-H460 lung
A498 renal = test system: A498 renal
SF-268 CNS = test system: SF-268 CNS
A549 NSCLC = test system: A549 NSCLC
BT-549 breast = test system: BT-549 breast
SNB-19 CNS = test system: SNB-19 CNS
RPMI-8226 leukemia = test system: RPMI-8226 leukemia
COLO 205 colon = test system: COLO 205 colon
ACHN renal = test system: ACHN renal
SK-MEL-28 melanoma = test system: SK-MEL-28 melanoma
NCI-H522 lung = test system: NCI-H522 lung
RXF 393 renal = test system: RXF 393 renal
MOLT-4 leukemia = test system: MOLT-4 leukemia
PC-3 prostate = test system: PC-3 prostate
HOP-92 NSCLC = test system: HOP-92 NSCLC
LOX IMVI melanoma = test system: LOX IMVI melanoma
T-47D breast = test system: T-47D breast
TK-10 renal = test system: TK-10 renal
K-562 leukemia = test system: K-562 leukemia
UO-31 renal = test system: UO-31 renal

O=C1NC(=Nc2ccccc2)S/C1=C\c1ccc2ncccc2c1
> 18.4 µM: TGI (A498 renal)
> 7.02 µM: TGI (SF-295 CNS)
> 25 µM: TGI (CAKI-1 renal) | TGI (OVCAR-8 ovarian) | TGI (UACC-62 melanoma) | TGI (SW-620 colon) | TGI (SK-OV-3 ovarian) | TGI (SK-MEL-2 melanoma) | TGI (HL-60(TB) leukemia) | TGI (NCI-H226 lung) | TGI (MDA-MB-231 breast) | TGI (IGROV1 ovarian) | TGI (HS 578T breast) | TGI (SN12C renal) | TGI (M14 melanoma) | TGI (HCT-15 colon) | TGI (SR leukemia) | TGI (786-0 renal) | TGI (SK-MEL-5 melanoma) | TGI (NCI/ADR-RES ovarian) | TGI (KM12 colon) | TGI (MCF7 breast) | TGI (U251 CNS) | TGI (DU-145 prostate) | TGI (UACC-257 melanoma) | TGI (CCRF-CEM leukemia) | TGI (SNB-75 CNS) | TGI (HOP-62 NSCLC) | TGI (HCT-116 colon) | TGI (OVCAR-5 ovarian) | TGI (OVCAR-4 ovarian) | TGI (MALME-3M melanoma) | TGI (SF-539 CNS) | TGI (NCI-H23 lung) | TGI (OVCAR-3 ovarian) | TGI (HT29 colon) | TGI (HCC-2998 colon) | TGI (NCI-H460 lung) | TGI (SF-268 CNS) | TGI (A549 NSCLC) | TGI (BT-549 breast) | TGI (SNB-19 CNS) | TGI (RPMI-8226 leukemia) | TGI (COLO 205 colon) | TGI (ACHN renal) | TGI (SK-MEL-28 melanoma) | TGI (NCI-H522 lung) | TGI (RXF 393 renal) | TGI (MOLT-4 leukemia) | TGI (PC-3 prostate) | TGI (HOP-92 NSCLC) | TGI (LOX IMVI melanoma) | TGI (T-47D breast) | TGI (TK-10 renal) | TGI (K-562 leukemia) | TGI (UO-31 renal)
1.88 µM: TGI (MDA-MB-435)
inactive: GI50 (CAKI-1 renal) > 25 µM | GI50 (OVCAR-8 ovarian) > 25 µM | GI50 (UACC-62 melanoma) 13.4 µM | GI50 (SW-620 colon) 0.965 µM | GI50 (SK-OV-3 ovarian) > 25 µM | GI50 (SK-MEL-2 melanoma) > 17.9 µM | GI50 (HL-60(TB) leukemia) 1.42 µM | GI50 (NCI-H226 lung) > 25 µM | GI50 (MDA-MB-231 breast) > 25 µM | GI50 (IGROV1 ovarian) > 7.5 µM | GI50 (HS 578T breast) > 11.8 µM | GI50 (SN12C renal) > 25 µM | GI50 (M14 melanoma) > 25 µM | GI50 (HCT-15 colon) 1.1 µM | GI50 (SR leukemia) 0.64 µM | GI50 (786-0 renal) > 25 µM | GI50 (SK-MEL-5 melanoma) > 25 µM | GI50 (NCI/ADR-RES ovarian) > 6.88 µM | GI50 (KM12 colon) 1.62 µM | GI50 (MCF7 breast) 0.953 µM | GI50 (U251 CNS) > 5.13 µM | GI50 (DU-145 prostate) > 25 µM | GI50 (UACC-257 melanoma) > 25 µM | GI50 (CCRF-CEM leukemia) > 25 µM | GI50 (MDA-MB-435) 0.62 µM | GI50 (HOP-62 NSCLC) 4.46 µM | GI50 (HCT-116 colon) 1.14 µM | GI50 (OVCAR-5 ovarian) > 25 µM | GI50 (OVCAR-4 ovarian) > 25 µM | GI50 (MALME-3M melanoma) > 18.1 µM | GI50 (SF-539 CNS) > 6.25 µM | GI50 (NCI-H23 lung) 5.89 µM | GI50 (OVCAR-3 ovarian) 1.11 µM | GI50 (HT29 colon) > 25 µM | GI50 (HCC-2998 colon) > 25 µM | GI50 (NCI-H460 lung) > 6.82 µM | GI50 (SF-268 CNS) > 10.3 µM | GI50 (A549 NSCLC) > 7.12 µM | GI50 (BT-549 breast) > 25 µM | GI50 (SNB-19 CNS) > 22.9 µM | GI50 (COLO 205 colon) > 25 µM | GI50 (ACHN renal) > 25 µM | GI50 (SK-MEL-28 melanoma) > 25 µM | GI50 (NCI-H522 lung) > 12.3 µM | GI50 (RXF 393 renal) > 25 µM | GI50 (MOLT-4 leukemia) > 25 µM | GI50 (PC-3 prostate) 1.67 µM | GI50 (HOP-92 NSCLC) > 25 µM | GI50 (LOX IMVI melanoma) > 25 µM | GI50 (T-47D breast) 12.3 µM | GI50 (TK-10 renal) > 25 µM | GI50 (K-562 leukemia) 0.846 µM | GI50 (UO-31 renal) > 25 µM

CCN1CCN(c2ccc(Nc3cc(N(C)C(=O)Nc4c(Cl)c(OC)cc(OC)c4Cl)ncn3)cc2)CC1
4.63 µM: TGI (SR leukemia)
3.7 µM: TGI (UACC-257 melanoma)
9.76 µM: TGI (SW-620 colon)
3.69 µM: TGI (HT29 colon)
22.2 µM: TGI (SNB-75 CNS)
2.91 µM: TGI (LOX IMVI melanoma)
> 64.5 µM: TGI (NCI/ADR-RES ovarian)
10.9 µM: TGI (NCI-H522 lung)
4.15 µM: TGI (MDA-MB-231 breast)
active: GI50 (A498 renal) < 0.0113 µM
22.7 µM: TGI (SK-MEL-2 melanoma)
9.75 µM: TGI (DU-145 prostate)
13.6 µM: TGI (ACHN renal)
19.2 µM: TGI (PC-3 prostate)
2.72 µM: TGI (RXF 393 renal)
10 µM: TGI (UO-31 renal)
22.9 µM: TGI (OVCAR-8 ovarian)
11 µM: TGI (SN12C renal)
3.47 µM: TGI (COLO 205 colon)
6.01 µM: TGI (CCRF-CEM leukemia)
4.71 µM: TGI (RPMI-8226 leukemia)
6.49 µM: TGI (T-47D breast)
12.1 µM: TGI (OVCAR-4 ovarian) | TGI (A549 NSCLC)
4.27 µM: TGI (786-0 renal)
8.94 µM: TGI (HCT-15 colon)
44.6 µM: TGI (NCI-H23 lung)
5.42 µM: TGI (NCI-H460 lung)
9.2 µM: TGI (HS 578T breast)
3.46 µM: TGI (SK-MEL-28 melanoma)
> 48.2 µM: TGI (CAKI-1 renal)
11.8 µM: TGI (MCF7 breast)
5.8 µM: TGI (MOLT-4 leukemia)
20.8 µM: TGI (SK-OV-3 ovarian)
inactive: GI50 (CAKI-1 renal) 4.19 µM | GI50 (OVCAR-8 ovarian) 3.07 µM | GI50 (UACC-62 melanoma) 1.66 µM | GI50 (SW-620 colon) 2.42 µM | GI50 (SK-OV-3 ovarian) 8.02 µM | GI50 (SF-295 CNS) 11.4 µM | GI50 (SK-MEL-2 melanoma) 7.12 µM | GI50 (HL-60(TB) leukemia) 2.14 µM | GI50 (MDA-MB-231 breast) 1.99 µM | GI50 (IGROV1 ovarian) 4.12 µM | GI50 (HS 578T breast) 1.34 µM | GI50 (SN12C renal) 2.62 µM | GI50 (M14 melanoma) 1.45 µM | GI50 (HCT-15 colon) 1.87 µM | GI50 (SR leukemia) 2.02 µM | GI50 (786-0 renal) 1.88 µM | GI50 (SK-MEL-5 melanoma) 4.27 µM | GI50 (NCI/ADR-RES ovarian) 3.7 µM | GI50 (KM12 colon) 4.47 µM | GI50 (MCF7 breast) 2.41 µM | GI50 (U251 CNS) 1.47 µM | GI50 (DU-145 prostate) 2.33 µM | GI50 (UACC-257 melanoma) 1.77 µM | GI50 (CCRF-CEM leukemia) 1.9 µM | GI50 (MDA-MB-435) 1.86 µM | GI50 (SNB-75 CNS) 5.23 µM | GI50 (HOP-62 NSCLC) 4.03 µM | GI50 (HCT-116 colon) 1.73 µM | GI50 (OVCAR-5 ovarian) 3.7 µM | GI50 (OVCAR-4 ovarian) 0.851 µM | GI50 (MALME-3M melanoma) 1.82 µM | GI50 (SF-539 CNS) 3.11 µM | GI50 (NCI-H23 lung) 4.35 µM | GI50 (OVCAR-3 ovarian) 5.67 µM | GI50 (HT29 colon) 1.55 µM | GI50 (HCC-2998 colon) 8.04 µM | GI50 (NCI-H460 lung) 1.87 µM | GI50 (SF-268 CNS) 2.41 µM | GI50 (A549 NSCLC) 3.13 µM | GI50 (BT-549 breast) 1.04 µM | GI50 (SNB-19 CNS) 4.06 µM | GI50 (RPMI-8226 leukemia) 1.76 µM | GI50 (COLO 205 colon) 1.93 µM | GI50 (ACHN renal) 2.18 µM | GI50 (SK-MEL-28 melanoma) 1.87 µM | GI50 (NCI-H522 lung) 5.21 µM | GI50 (RXF 393 renal) 1.13 µM | GI50 (MOLT-4 leukemia) 1.87 µM | GI50 (PC-3 prostate) 3.52 µM | GI50 (HOP-92 NSCLC) 2.28 µM | GI50 (LOX IMVI melanoma) 1.48 µM | GI50 (T-47D breast) 2.51 µM | GI50 (TK-10 renal) 2.5 µM | GI50 (K-562 leukemia) 2.09 µM | GI50 (UO-31 renal) 1.35 µM
18.7 µM: TGI (KM12 colon) | TGI (SNB-19 CNS)
27.3 µM: TGI (HOP-92 NSCLC)
22.6 µM: TGI (IGROV1 ovarian)
0.062 µM: TGI (A498 renal)
25.9 µM: TGI (SF-295 CNS)
5.2 µM: TGI (HCT-116 colon)
15.9 µM: TGI (OVCAR-3 ovarian)
3.71 µM: TGI (U251 CNS) | TGI (MDA-MB-435)
8.47 µM: TGI (SK-MEL-5 melanoma)
14.7 µM: TGI (OVCAR-5 ovarian)
15.5 µM: TGI (HOP-62 NSCLC)
12.5 µM: TGI (TK-10 renal)
28 µM: TGI (SF-268 CNS)
5.5 µM: TGI (K-562 leukemia)
3.5 µM: TGI (MALME-3M melanoma)
3.1 µM: TGI (M14 melanoma)
3.14 µM: TGI (UACC-62 melanoma)
21.1 µM: TGI (BT-549 breast)
32.5 µM: TGI (HCC-2998 colon)
4.42 µM: TGI (HL-60(TB) leukemia)
7.99 µM: TGI (SF-539 CNS)
